From patent US6958141B2, “Rhenium and technetium complexes containing a hypoxia-localizing moiety” (Bracco International B.V., priority 1991, dated 2005)

Key:
[1] = Biodistribution of ^99mTc-complexes in normal (normoxic) Sprague-Dawley rats; type: in vivo; settings: MEAN n=4
Procedure: Twelve Sprague-Dawley rats were anesthetized with Nembutal (50 mg/kg) and injected with 0.1 mL (20 μCi) of radioactivity via the jugular vein. At 1 minute, 5 minutes and 60 minutes after administration of the radiotracers (n=4 for all time points), the animals were sacrificed by exsanguination, and the target tissues removed, weighed and assayed for radioactivity. The rats were allowed to respire room air throughout the course of the study.

[2] = system: hypoxic ischemic border zone; assay: Rabbit focal myocardial ischemia model (LAD occlusion), double-label autoradiography; type: in vivo; settings: permanent LAD coronary artery ligation, intravenous tracer, heart sections, listed as 99mTc complex of the ligand described in Example 1
Procedure: A model of focal myocardial ischemia in the rabbit was developed, using permanent ligation of the left anterior descending (LAD) coronary artery. The model consisted of two studies. In the first, relative regional myocardial blood flow (MBF) and relative regional myocardial rate of glucose metabolism (MMRgl) were determined by autoradiography using a double-label study with the flow tracer ^99mTcCl(CDO)3MeB (R. K. Narra et al., J. Nucl. Med., 1989; 30:1830-1837) and ^14C-deoxy-glucose for MMRgl (L. Sokoloff et al., J. Neurochem., 1977, 28, 897-916). ^14C-deoxyglucose and the ^99mTc-hypoxia-localizing tracer were administered to a second group of rabbits with LAD coronary artery occlusion.
After the surgical preparation and 20 minutes of LAD occlusion, ^14C-deoxyglucose (130-150 μCi) was injected as an intravenous bolus, and timed arterial blood samples were obtained. Twenty-five minutes later, ^99mTcCl(CDO)3MeB (10-12 mCi) was administered intravenously. Five minutes later, the rabbits were sacrificed by intravenous injection of Nembutal and potassium chloride. The heart was excised, frozen in liquid Freon-22, and 20 μm coronal sections obtained with a Microtome. Autoradiographs were obtained on all sections. For the first exposure (˜14 hours duration) of Kodak XAR film, extra heavy duty aluminum foil was interposed between the tissue and film to block completely the radiation emanating from ^14C to obtain the MBF information derived from ^99mTcCl(CDO)3MeB alone. After three days (to allow for decay of ^99mTc); a second autoradiograph was obtained without foil. The second exposure lasted 6-8 days, and,provided an image of the regional distribution of ^14C-deoxyglucose.
In a separate experiment using the rabbit LAD occlusion model and the double-label autoradiography procedures described above, the performance of the ^99mTc complex of the ligand described in Example 1 was compared to that of ^14C-misonidazole.

hypoxic border zone = assay: Rat focal cerebral ischemia model (MCA occlusion), double-label autoradiography; type: in vivo, spontaneously hypertensive rats (SHR); settings: SHR, injected 1 hour or five days after MCA occlusion, both time points
Procedure: A model of focal cerebral ischemia involving tandem occlusion of the internal carotid artery and the ipsilateral middle cerebral artery (MCA) in spontaneously hypertensive rats (SHR) was characterized using the double-label autoradiography procedure described in Example 10. […] Following surgery, which was performed under Halothane anesthesia, the rats were allowed to recover and one hour after the MCA occlusion, ^14C-deoxyglucose was injected as an IV bolus and timed arterial samples were obtained. Twenty-five minutes after ^14C-deoxyglucose injection, ^99mTcCl(DMG)32MP was injected as an IV bolus and the rat was sacrificed 15 seconds later. The brain was rapidly removed and sections and autoradiograms were obtained as described in Example 10. As found in Example 10 for the rabbit LAD occlusion model, the ischemic territory was bordered by a rim of tissue in which glycolysis was elevated. […] Nevertheless, it was clear that the ischemic region is surrounded by a border zone of increased glycolysis. In a second series of experiments, the ^99mTc complex of the ligand described in Example 1 and ^14C-deoxyglucose were co-injected 1 hour or five days after MCA occlusion.

[3] = 1 Min. after jugular vein injection
[4] = 5 Min. after jugular vein injection
[5] = 60 Min. after jugular vein injection

## [^99mTc]Oxo[[3,3,9,9-tetramethyl-1-(2-nitro-1H-imidazo-1-yl)-4,8-diazaundecane-2,10-dione dioximato]-(3-)-N,N′,N″,N′″]technetium(V) [^99mTc complex from ligand in Ex. 1]
[1]; [3]
  Percent ID/g Bladder: 0.15 Percent ID/g
  Percent ID/g Blood: 0.47 Percent ID/g
  Percent ID/g Bone: 0.37 Percent ID/g
  Percent ID/g Brain: 0.30 Percent ID/g
  Percent ID/g Heart: 1.32 Percent ID/g
  Percent ID/g Kidneys: 2.59 Percent ID/g
  Percent ID/g Liver: 2.06 Percent ID/g
  Percent ID/g Lower Intestine: 0.50 Percent ID/g
  Percent ID/g Lungs: 0.71 Percent ID/g
  Percent ID/g Muscle: 0.25 Percent ID/g
  Percent ID/g Spleen: 0.84 Percent ID/g
  Percent ID/g Stomach: 0.67 Percent ID/g
  Percent ID/g Thymus: 0.55 Percent ID/g
  Percent ID/g Thyroid: 0.65 Percent ID/g
  Percent ID/g Upper Intestine: 1.13 Percent ID/g
[1]; [4]
  Percent ID/g Bladder: 0.68 Percent ID/g
  Percent ID/g Blood: 0.36 Percent ID/g
  Percent ID/g Bone: 0.23 Percent ID/g
  Percent ID/g Brain: 0.11 Percent ID/g
  Percent ID/g Heart: 0.34 Percent ID/g
  Percent ID/g Kidneys: 1.15 Percent ID/g
  Percent ID/g Liver: 3.63 Percent ID/g
  Percent ID/g Lower Intestine: 0.40 Percent ID/g
  Percent ID/g Lungs: 0.39 Percent ID/g
  Percent ID/g Muscle: 0.14 Percent ID/g
  Percent ID/g Spleen: 0.45 Percent ID/g
  Percent ID/g Stomach: 0.56 Percent ID/g
  Percent ID/g Thymus: 0.25 Percent ID/g
  Percent ID/g Thyroid: 0.77 Percent ID/g
  Percent ID/g Upper Intestine: 0.98 Percent ID/g
[1]; [5]
  Percent ID/g Bladder: 2.84 Percent ID/g
  Percent ID/g Blood: 0.28 Percent ID/g
  Percent ID/g Bone: 0.11 Percent ID/g
  Percent ID/g Brain: 0.02 Percent ID/g
  Percent ID/g Heart: 0.09 Percent ID/g
  Percent ID/g Kidneys: 0.45 Percent ID/g
  Percent ID/g Liver: 2.45 Percent ID/g
  Percent ID/g Lower Intestine: 0.36 Percent ID/g
  Percent ID/g Lungs: 0.16 Percent ID/g
  Percent ID/g Muscle: 0.05 Percent ID/g
  Percent ID/g Spleen: 0.23 Percent ID/g
  Percent ID/g Stomach: 1.80 Percent ID/g
  Percent ID/g Thymus: 0.05 Percent ID/g
  Percent ID/g Thyroid: 0.15 Percent ID/g
  Percent ID/g Upper Intestine: 4.60 Percent ID/g
[2]
  regional myocardial distribution pattern (autoradiography): high uptake in the hypoxic border zone of the ischemic territory and low uptake in normoxic regions
Hypoxic border zone
  uptake in brain autoradiograms: increased uptake in the hypoxic border zone relative to surrounding normoxic tissue
